Laboratory results published in publication PMC12135508 (Antimicrobial Agents and Chemotherapy, 2025).
Like-named read-outs stand apart in the source and are kept apart here. Marks after values point to notes of the source that are not given here.

Key:
E. coli TOP10F´ = experiment: microbe, parasite or virus in culture; format: cell-based; details: Escherichia coli, read-out: Minimum inhibitory concentration
From the text: (§1) The KPC-2 gene was recovered from a clinical Klebsiella pneumoniae strain previously characterized in our laboratory ([46]). E. coli TOP10 F´ (Invitrogen, USA) and E. coli BL21(DE3) (Novagen, Germany) were used as hosts for transformation experiments, to obtain recombinant clones for antimicrobial susceptibility and overexpression assays, respectively. Escherichia coli ATCC 25922 and ATCC 35218 were used as control strains for antimicrobial susceptibility assays.
(§2) Minimum inhibitory concentrations (MICs) of different β-lactams and combinations with β-lactamase inhibitors were determined by an adaptation of the broth microdilution method by the CLSI ([49]), as follows. As we used E. coli recombinant clones harboring pMBLe/bla constructions, where protein production is regulated by isopropyl-β-D-thiogalactoside (IPTG) induction ([47]), antimicrobial susceptibility assays were performed using Mueller Hinton broth supplemented with 50 µM IPTG. Also, as control strains we included the E. coli Top10F’ (used as recipient strain in transformation assays), and the same strain transformed with the empty vector pMBLe, to have a comparison under the same isogenic background.

[1] = tested on: E. coli TOP10F´ pMBLe/KPC-2; experiment: MIC by broth microdilution, KPC-2-producing recombinant clone; format: cell-based; details: Escherichia coli, 50 µM IPTG, combinations given as β-lactam/inhibitor, read-out: Minimum inhibitory concentration
Procedure: (§3) Ligation mixtures were transformed in chemically competent E. coli TOP10F´ cells, and recombinant clones were selected in Lysogeny broth (LB) agar supplemented with 20 µg/mL gentamicin or 30 µg/mL kanamycin, depending on whether the constructions were obtained in pMBLe or pET24a(+) vectors, respectively. Recombinant plasmids of the selected clones were extracted and sequenced to verify the identity of bla genes and their proper insertion.
(§4) Minimum inhibitory concentrations (MICs) of different β-lactams and combinations with β-lactamase inhibitors were determined by an adaptation of the broth microdilution method by the CLSI ([49]), as follows. As we used E. coli recombinant clones harboring pMBLe/bla constructions, where protein production is regulated by isopropyl-β-D-thiogalactoside (IPTG) induction ([47]), antimicrobial susceptibility assays were performed using Mueller Hinton broth supplemented with 50 µM IPTG.

[2] = tested on: E. coli TOP10F´ pMBLe/KPC-14; experiment: MIC by broth microdilution, KPC-14-producing recombinant clone; format: cell-based, Escherichia coli; details: for MIC: Escherichia coli, E. coli TOP10F´ pMBLe/KPC-14, 50 µM IPTG, combinations given as β-lactam/inhibitor, read-out: Minimum inhibitory concentration; for MIC interpretation in KPC-14 recombinant clone: recombinant clone harboring KPC-14
Procedure: as §3, §4

KPC-14 [3] = biological target: T1, KPC-14 (Klebsiella pneumoniae, UniProt Q9F663, DEL241-242); experiment: Steady-state kinetics of β-lactam hydrolysis by KPC-14; format: biochemical; details: for kcat / Km: KPC-14
T1 construct: amplify the entire blaKPC-14 gene with the cloning primers; made in house; host or cells: E. coli BL21(DE3), pET24a(+)
T1 sequence (Q9F663 25-240, added parts left off, stated change not applied): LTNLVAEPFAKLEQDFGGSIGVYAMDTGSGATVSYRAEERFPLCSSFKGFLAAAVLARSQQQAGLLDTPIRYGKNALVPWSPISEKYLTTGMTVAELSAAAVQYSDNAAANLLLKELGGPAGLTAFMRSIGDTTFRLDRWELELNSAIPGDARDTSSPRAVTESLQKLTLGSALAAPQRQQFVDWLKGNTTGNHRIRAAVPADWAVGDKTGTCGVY
From the text: (Eq. 1) v=(Vmax×[S]) / (Km+[S])
(Eq. 2) KI=KI obs / (1+[NCF]/KM(NCF))

KPC-2 [4] = details: ceftazidime as reporter substrate, ref 20 Oueslati et al.; cited from earlier work
KPC-14 [5] = tested on: KPC-14; design: method as in earlier work; details: ref 20 Oueslati et al., cited from earlier work
E. coli TOP10F´/pMBLe = experiment: MIC by broth microdilution, empty-vector control clone; format: cell-based; details: Escherichia coli; E. coli TOP10F´ with empty vector pMBLe; 50 µM IPTG; combinations given as β-lactam/inhibitor; read-out: Minimum inhibitory concentration
From the text: as §1, §2

KPC-2 [6] = biological target: T2, KPC-2 (Klebsiella pneumoniae, UniProt Q9F663); experiment: Clavulanic acid inhibition and hydrolysis, KPC-2; format: biochemical
T2 construct: The complete blaKPC-2 gene was amplified from whole DNA; made in house; host or cells: E. coli BL21(DE3), pET24a(+)
T2 sequence (Q9F663 25-293 limits assumed): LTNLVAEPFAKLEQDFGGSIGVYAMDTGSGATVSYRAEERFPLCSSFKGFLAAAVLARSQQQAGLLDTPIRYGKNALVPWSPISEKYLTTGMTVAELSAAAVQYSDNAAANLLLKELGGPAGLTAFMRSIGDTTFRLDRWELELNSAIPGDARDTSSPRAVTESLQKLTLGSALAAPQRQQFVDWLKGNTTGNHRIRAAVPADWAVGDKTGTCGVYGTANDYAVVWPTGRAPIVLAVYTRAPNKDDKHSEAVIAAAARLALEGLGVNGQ
Procedure: (§5) To assess if KPC-14 shares the same behavior, KI app and kinact values for clavulanic acid of both enzymes were determined as previously reported ([32], [33]). The initial velocity (V0) of clavulanic acid hydrolysis was monitored at 235 nm ([32]), mixing an inhibitor concentration five times the KM determined and 100 nM of enzyme. V0 obtained under this condition was considered the Vmax and was used to determine the kcat for clavulanic acid.

KPC-14 [7] = biological target: T1, KPC-14; experiment: Clavulanic acid inhibition and hydrolysis, KPC-14; format: biochemical
Procedure: as §5

[8] = tested on: CC(=O)OCC1=C(C(=O)O)N2C(=O)[C@@H](NC(=O)Cc3cccs3)[C@H]2SC1; experiment: purified protein, by the assay type; details: other: KPC-2, 50 mM sodium phosphate pH 7.0, room temperature
[9] = tested on: CC(C)(O/N=C(\C(=O)N[C@@H]1C(=O)N2C(C(=O)[O-])=C(C[n+]3ccccc3)CS[C@H]12)c1csc(N)n1)C(=O)O; experiment: purified protein, by the assay type; details: other: KPC-2; determined with nitrocefin as reporter in competitive assays; pH 7.0
[10] = tested on: CCN1CCN(C(=O)N[C@@H](C(=O)N[C@@H]2C(=O)N3[C@@H]2SC(C)(C)[C@@H]3C(=O)O)c2ccccc2)C(=O)C1=O; experiment: purified protein, by the assay type; details: other: KPC-2, 50 mM sodium phosphate pH 7.0, room temperature
[11] = tested on: CO/N=C(\C(=O)N[C@@H]1C(=O)N2C(C(=O)O)=C(COC(N)=O)CS[C@H]12)c1ccco1; experiment: purified protein, by the assay type; details: other: KPC-2, 50 mM sodium phosphate pH 7.0, room temperature
[12] = tested on: CO/N=C(\C(=O)N[C@@H]1C(=O)N2C(C(=O)O)=C(CSc3nc(=O)c(=O)[nH]n3C)CS[C@H]12)c1csc(N)n1; experiment: purified protein, by the assay type; details: other: KPC-2; determined with nitrocefin as reporter in competitive assays; pH 7.0
[13] = tested on: CO/N=C(\C(=O)N[C@@H]1C(=O)N2C(C(=O)[O-])=C(C[N+]3(C)CCCC3)CS[C@H]12)c1csc(N)n1; experiment: purified protein, by the assay type; details: other: KPC-2, 50 mM sodium phosphate pH 7.0, room temperature
[14] = tested on: C[C@@H](O)[C@H]1C(=O)N2C(C(=O)O)=C(SCCN=CN)C[C@H]12; experiment: purified protein, by the assay type; details: other: KPC-2, 50 mM sodium phosphate pH 7.0, room temperature
[15] = tested on: C[C@@H](O)[C@H]1C(=O)N2C(C(=O)O)=C(S[C@@H]3CN[C@H](C(=O)N(C)C)C3)[C@H](C)[C@H]12; experiment: purified protein, by the assay type; details: other: KPC-2, 50 mM sodium phosphate pH 7.0, room temperature
[16] = E. coli TOP10F´ recipient strain, Mueller Hinton broth + 50 µM IPTG, combinations given as β-lactam/inhibitor
[17] = 50 mM sodium phosphate pH 7.0, room temperature
[18] = determined with nitrocefin as reporter in competitive assays

CC1(C)S[C@@H]2[C@H](NC(=O)[C@H](N)c3ccccc3)C(=O)N2[C@H]1C(=O)O [Ampicillin]
MIC (E. coli TOP10F´; [16]): 2 µg/mL | MIC [1]: 1020 µg/mL | MIC [2]: 64 µg/mL | kcat/KM fold lower, KPC-14 vs KPC-2 (KPC-14 [3]): 24 fold | kcat (KPC-14 [3]): 0.83 ± 0.02 s⁻¹ | Km (KPC-14 [3]; [17]): 95 ± 10 µM

NC(=O)[C@@H]1CC[C@@H]2CN1C(=O)N2OS(=O)(=O)O [Avibactam, avibactam]
IC50 (KPC-2 [4]): […] | IC50 (KPC-14 [5]; KPC-14, ceftazidime as reporter substrate): 107 nM

C[C@H]1[C@H](NC(=O)/C(=N\OC(C)(C)C(=O)O)c2csc(N)n2)C(=O)N1S(=O)(=O)O [Aztreonam]
MIC (E. coli TOP10F´; [16]): ≤ 0.25 µg/mL | MIC (E. coli TOP10F´/pMBLe): ≤ 0.25 µg/mL

CO/N=C(\C(=O)N[C@@H]1C(=O)N2C(C(=O)[O-])=C(C[N+]3(C)CCCC3)CS[C@H]12)c1csc(N)n1 [Cefepime]
MIC (E. coli TOP10F´; [16]): ≤ 0.25 µg/mL | MIC (E. coli TOP10F´/pMBLe): ≤ 0.25 µg/mL | MIC [1]: 1 µg/mL | MIC [2]: 1 µg/mL | hydrolytic efficiency (kcat/KM) fold increase, KPC-14 vs KPC-2 (KPC-14 [3]): 3 fold | kcat (KPC-14 [3]): 0.61 ± 0.03 s⁻¹ | Km (KPC-14 [3]; [17]): 7 ± 1 µM

CC(C)(O/N=C(\C(=O)N[C@@H]1C(=O)N2C(C(=O)[O-])=C(C[n+]3ccccc3)CS[C@H]12)c1csc(N)n1)C(=O)O [Ceftazidime]
MIC (E. coli TOP10F´; [16]): 0.12 µg/mL | MIC [1]: 2 µg/mL | MIC [2]: 32 µg/mL

CO/N=C(\C(=O)N[C@@H]1C(=O)N2C(C(=O)O)=C(CSc3nc(=O)c(=O)[nH]n3C)CS[C@H]12)c1csc(N)n1 [Ceftriaxone]
MIC (E. coli TOP10F´): ≤ 0.25 µg/mL | MIC (E. coli TOP10F´/pMBLe): ≤ 0.25 µg/mL

CC(=O)OCC1=C(C(=O)O)N2C(=O)[C@@H](NC(=O)Cc3cccs3)[C@H]2SC1 [Cephalothin]
MIC (E. coli TOP10F´; [16]): 8 µg/mL | MIC [1]: 256 µg/mL | MIC [2]: 64 µg/mL

C[C@@H](O)[C@H]1C(=O)N2C(C(=O)O)=C(SCCN=CN)C[C@H]12 [Imipenem]
MIC (E. coli TOP10F´; [16]): 0.12 µg/mL | MIC (E. coli TOP10F´/pMBLe): 0.12 µg/mL | MIC [1]: 2 µg/mL | MIC [2]: 0.25 µg/mL | MIC interpretation in KPC-14 recombinant clone [2]: within the susceptibility range | kcat/KM fold lower, KPC-14 vs KPC-2 (KPC-14 [3]): 11 fold | kcat (KPC-14 [3]): (5.93 ± 0.02) × 10^−3 s^−1 | Km (KPC-14 [3]; [18]): 0.55 ± 0.02 µM | turnover (kcat) fold decrease, KPC-14 vs KPC-2 (KPC-14 [3]; this work): 2,500 fold | turnover (kcat) fold reduction, KPC-14 (KPC-14 [5]): 1,000 fold

C[C@@H](O)[C@H]1C(=O)N2C(C(=O)O)=C(S[C@@H]3CN[C@H](C(=O)N(C)C)C3)[C@H](C)[C@H]12 [Meropenem]
MIC (E. coli TOP10F´; [16]): ≤ 0.03 µg/mL | MIC (E. coli TOP10F´/pMBLe): ≤ 0.03 µg/mL | MIC [1]: 1 µg/mL | MIC [2]: ≤ 0.03 µg/mL | MIC interpretation in KPC-14 recombinant clone [2]: within the susceptibility range | kcat/KM fold lower, KPC-14 vs KPC-2 (KPC-14 [3]): 1,000 fold | kcat (KPC-14 [3]): (8.8000 ± 0.0001) × 10^−4 s^−1 | Km (KPC-14 [3]; [18]): 10 ± 1 µM

O=C(O)[C@H]1/C(=C/CO)O[C@@H]2CC(=O)N21 [clavulanic acid]
inhibition of nitrocefin hydrolysis at 300 µM inhibitor (KPC-2 [6]; 300 µM clavulanic acid): residual hydrolytic activity | kcat (turnover of inhibitor hydrolysis) (KPC-2 [6]; 235 nm, inhibitor five times above KM, 100 nM enzyme): 11.60 ± 0.01 s⁻¹ | KM (Ki app expressed as KM) (KPC-2 [6]; nitrocefin competition): 80000 ± 8000 nM | hydrolysis of inhibitor monitored at 235 nm (KPC-14 [7]; inhibitor five times above Ki app, 100 nM enzyme): No hydrolytic activity was detected | Ki (KPC-14 [7]; nitrocefin competition, read-out: Ki app): 8500 ± 1100 nM | concentration sufficient for complete inhibition of enzyme activity (KPC-14 [7]; nitrocefin hydrolysis time courses): 16 µM

KPC-2 (Klebsiella pneumoniae)
Km [8]: 159 ± 15 µM | kcat [8]: 56 ± 2 s⁻¹ | kcat/Km [8]: 360000 ± 40000 M⁻¹ s⁻¹ | Km [9]: 1,319 ± 145^a µM | kcat [9]: 0.9 ± 0.1 s⁻¹ | kcat/Km [9]: 830 ± 40 M⁻¹ s⁻¹ | Km [10]: 97 ± 12 µM | kcat [10]: 29 ± 1 s⁻¹ | kcat/Km [10]: 300000 ± 40000 M⁻¹ s⁻¹ | Km [11]: 319 ± 48 µM | kcat [11]: 85 ± 8 s⁻¹ | kcat/Km [11]: 270000 ± 50000 M⁻¹ s⁻¹ | Km [12]: 267 ± 29^a µM | kcat [12]: 52 ± 7 s⁻¹ | kcat/Km [12]: 194000 ± 6000 M⁻¹ s⁻¹ | Km [13]: 59 ± 5 µM | kcat [13]: 1.31 ± 0.04 s⁻¹ | Km [14]: 120 ± 9 µM | kcat [14]: 15 ± 0.4 s⁻¹ | kcat/Km [14]: 120000 ± 10000 M⁻¹ s⁻¹ | Km [15]: 31 ± 2 µM | kcat [15]: 2.85 ± 0.06 s⁻¹ | kcat/Km [15]: 91000 ± 6000 M⁻¹ s⁻¹
